This is an account of results in patent US6288082A, “Substituted 3-cyanoquinolines” (priority 1999, dated 2001).

Structures are written as SMILES. ≈ marks a conversion by molar mass, not a printed value. Where “and” joins values, the source holds several entries; their conditions need not be identical. Identical values can stand only once. Bounds are passed on as bounds.

The target of assay [1] is T1, Epidermal Growth Factor Receptor Kinase (EGF-R) (Homo sapiens, UniProt P00533).
T1 construct: EGFR cDNA encoding amino acids 645-1186 preceded by Met-Ala-(His)6; Met-Ala-(His)6 (N); made in house; host or cells: Sf9 insect cells, recombinant baculovirus vHcEGFR52
The assay can be described thus: Inhibition of Epidermal Growth Factor Receptor Kinase (EGF-R) Using Recombinant Enzyme. The settings on record: for IC50: recombinant enzyme, RR-SRC peptide substrate. It counts as biochemical. The procedure:
Inhibition of Epidermal Growth Factor Receptor Kinase (EGF-R) Using Recombinant Enzyme
Representative test compounds were evaluated for their ability to inhibit the phosphorylation of the tyrosine residue of a peptide substrate catalyzed by the enzyme epidermal growth factor receptor kinase. The peptide substrate (RR-SRC) has the sequence arg-arg-leu-ile-glu-asp-ala-glu-tyr-ala-ala-arg-gly. The enzyme used in this test procedure is the His-tagged cytoplasmic domain of EGFR. A recombinant baculovirus (vHcEGFR52) was constructed containing the EGFR cDNA encoding amino acids 645-1186 preceded by Met-Ala-(His)6. Sf9 cells in 100 mm plates were infected at an moi of 10 pfu/cell and cells were harvested 48 h post infection. A cytoplasmic extract was prepared using 1% Triton X-100 and applied to Ni-NTA column. After washing the column with 20 mM imidazole, HcEGFR was eluted with 250 mM imidazole (in 50 mM Na2 HPO4, pH 8.0, 300 mM NaCl). Fractions collected were dialyzed against 10 mM HEPES, pH 7.0, 50 mM NaCl, 10% glycerol, 1 ug/mL antipain and leupeptin and 0.1 mM Pefabloc SC. The protein was frozen in dry ice/methanol and stored -70° C.
Test compounds were made into 10 mg/mL stock solutions in 100% dimethylsulfoxide (DMSO). Prior to experiment, stock solutions were diluted to 500 uM with 100% DMSO and then serially diluted to the desired concentration with HEPES buffer (30 mM HEPES pH 7.4).
For the enzyme reaction, 10 uL of each inhibitor (at various concentrations) were added to each well of a 96-well plate. To this was added 3 uL of enzyme (1:10 dilution in 10 mM HEPES, pH 7.4 for final conc. of 1:120). This was allowed to sit for 10 min on ice and was followed by the addition of 5 ul peptide (80 uM final conc.), 10 ul of 4×Buffer (Table A), 0.25 uL ^33 P-ATP and 12 uL H2 O. The reaction was allowed to run for 90 min at room temperature and was followed by spotting the entire volume on to precut P81 filter papers. The filter discs were washed 2× with 0.5% phosphoric acid and radioactivity was measured using a liquid scintillation counter. […]
The inhibition data for representative compounds of the invention are shown below in TABLE 1. […] The % inhibition of the test compound was determined for at least three different concentrations and the IC50 value was evaluated from the dose response curve. The % inhibition was evaluated with the following formula: […]
where CPM(drug) is in units of counts per minute and is a number expressing the amount of radiolabled ATP (γ-^33 P) incorporated onto the RR-SRC peptide substrate by the enzyme after 90 minutes at room temperature in the presence of test compound as measured by liquid scintillation counting. CPM(control) is in units of counts per minute and was a number expressing the amount of radiolabled ATP (γ-^33 P) incorporated into the RR-SRC peptide substrate by the enzyme after 90 minutes at room temperature in the absence of test compound as measured by liquid scintillation counting. The CPM values were corrected for the background counts produced by ATP in the absence of the enzymatic reaction.

Assay [2] deals with Mitogen Activated Protein Kinase (Mek-Erk). The assay can be described thus: Mitogen Activated Protein Kinase (MAPK) assay, coupled Mek-Erk. It counts as biochemical, human. To be noted: MBP or Myc peptide substrate, pH 7.4. The method, then: Mitogen Activated Protein Kinase (MAPK) Assay
To evaluate inhibitors of the MAP (mitogen activated protein) kinase a two component coupled standard pharmacological test procedure, which measures phosphorylation of a serine/threonine residue in an appropriate sequence in the substrate in the presence and absence of a putative inhibitor, was used. Recombinant human MEK 1 (MAPKK) was first used to activate recombinant human ERK2 (MAPK) and the activated MAPK (ERK) was incubated with substrate (MBP peptide or MYC peptide) in the presence of ATP, Mg^+2 and radiolabeled ^33 P ATP. The phosphorylated peptide was captured on a P 81 phosphocellulose filter (paper filter or embedded in microtiter plate) washed and counted by scintillation methods.
The peptide substrates used in the assay are MBP, peptide substrate ([…]), or synthetic Myc substrate, ([…]·5 TFA. The recombinant enzymes used were prepared as GST fusion proteins of human ERK 2 and human MEK 1. Inhibitor samples were prepared as 10×stocks in 10% DMSO and an appropriate aliquot was used to deliver either 10 ug/ml for a single point screening dose or 100, 10, 1, and 0.1 uM final concentration for a dose response curve. Final DMSO concentrations were less than or equal to 1%.
The reaction was run as follows in 50 mM Tris kinase buffer, pH 7.4 in a reaction volume of 50 ul. The appropriate volume of kinase buffer and inhibitor sample was added to the tube. Appropriate dilution of enzyme was delivered to give 2-5 ug recombinant MAPK (Erk ) per tube. The inhibitor was incubated with MAPK (Erk) for 30 min at 0 deg. C. Recombinant Mek (MAPKK) (0.5-2.5 ug) or fully activated Mek (0.05-0.1 units) was added to activate the Erk and incubated for 30 min at 30° C. Then substrate and gamma ^33 P ATP was were added to give a final concentration of 0.5-1 mM MBPP or 250-500 uM Myc; 0.2-0.5 uCi gamma P 33 ATP/tube; 50 μM ATP final concentration. Samples were incubated at 30° C. for 30 minutes and the reaction was stopped by adding 25 μl of ice cold 10% TCA. After samples were chilled on ice for 30 min, 20 μl of sample was transferred onto P 81 phosphocellulose filter paper or appropriate MTP with embedded P 81 filter. Filter papers or MTP were washed 2 times with a large volume of 1% acetic acid, then 2 times with water. The filters or MTP were briefly air dried before addition of scintillant and samples were counted in the appropriate scintillation counter set up for reading ^33 P isotope. Samples included a positive control (activated enzyme plus substrate); a no enzyme control; a no substrate control; samples with different concentrations of putative inhibitor; and samples with reference inhibitors (other active compounds or non-specific inhibitors such as staurosporine or K252 B).
The raw data was captured as cpm. Sample replicates were averaged and corrected for background count. Mean cpm data was tabulated by group and % inhibition by a test compound was calculated as (corrected cpm control-corrected. cpm sample/control)×100=% inhibition. […] The results obtained for representative compounds of this invention are listed in TABLE 2 where there may be separate entries for the same compound; this is an indication that the compound was evaluated more than one time.

Assay [3] relates to human colon carcinoma SW620. The settings on record: 3 mg/kg/dose IP days 1-20, Day 7.
Protocol: In Vivo Inhibition of the Growth of Human Colon Carcinoma SW620
Human colon carcinoma SW620 cells (American Type Culture Collection, Rockville, Md. #CCL-227) were grown in vitro as described above. BALB/c nu/nu female mice (Charles River, Wilmington, Mass.) were used in this in vivo standard pharmacological test procedure. A unit of 7×10^6 cells were injected SC into mice. When tumors attained a mass of between 80 and 120 mg, the mice were randomized into treatment groups (day zero). Mice were treated IP once a day on days 1 through 20 post staging with doses of either 30, 10, 3 or 1 mg/kg/dose of the compound to be evaluated in 0.2% Klucel. Control animals received vehicle only. Tumor mass was determined every 7 days [(length×width^2)/2] for 28 days post staging. Relative tumor growth (Mean tumor mass on days 7, 14, 21, and 28 divided by the mean tumor mass on day zero) is determined for each treatment group. Statistical analysis (Student-t-test) of log relative tumor growth compares treated verses control group. A p-value (p≤0.05) indicates a statistically significant reduction in relative tumor growth of treated group compared to the vehicle control.
Assay [4] has as its system 3T3/c-erbb2. Kind of assay: Inhibition of cancer cell growth as measured by cell number, 3T3/c-erbb2. It counts as cell-based. The settings on record: 3T3/c-erbb2, 48 hours exposure. The method, then: (§1) Inhibition of Cancer Cell Growth as Measured by Cell Number […] […] After 48 hours exposure to test compounds, cells were fixed with trichloroacetic acid, and stained with Sulforhodamine B. After washing with trichloroacetic acid, bound dye was solubilized in 10 mM Tris base and optical density was determined using plate reader. Under conditions of the assay the optical density is proportional to the number of cells in the well. […] The test procedure is described in details by Philip Skehan et. al, J.Natl. Canc. Inst., 82, 1107-1112 (1990). […] Information about some of the cell lines used in these test procedures is available from the American Type Tissue Collection: Cell Lines and Hybridomas, 1994 Reference Guide, 8th Edition.

Assay [5] deals with Epithelial Cell Kinase (ECK) (Homo sapiens, UniProt P29317). The assay can be described thus: Inhibition of Epithelial Cell Kinase (ECK). To be noted: biotinylated peptide substrate, pH 7.2. It counts as biochemical.
Protocol: In this standard pharmacological test procedure, a biotinylated peptide substrate is first immobilized on neutravidin-coated microtiter plates. The test drug, the Epithelial Cell Kinase (ECK), Mg^++, sodium vanadate (a protein tyrosine phosphatase inhibitor), and an appropriate buffer to maintain pH (7.2) are then added to the immobilized substrate-containing microtiter wells. ATP is then added to initiate phosphorylation. After incubation, the assay plates are washed with a suitable buffer leaving behind phosphorylated peptide which is exposed to horse radish peroxidase (HRP)-conjugated anti-phosphotyrosine monoclonal antibody. The antibody-treated plates are washed again and the HRP activity in individual wells is quantified as a reflection of degree of substrate phosphorylation.
In assay [6] the target is T2, Kinase insert Domain containing Receptor (KDR) (Homo sapiens, UniProt P35968).
T2 construct: KDR; the Catalytic Domain of the VEGF Receptor
Kind of assay: Inhibition of Kinase insert Domain containing Receptor (KDR; the catalytic domain of the VEGF receptor). To be noted: substrate E:Y 4:1, pH 7.2. It counts as biochemical.
Description: Inhibition of Kinase Insert Domain Containing Receptor (KDR; the Catalytic Domain of the VEGF Receptor)
In this standard pharmacological test procedure, KDR protein is mixed, in the presence or absence of a inhibitor compound, with a substrate peptide to be phosphorylated (a copolymer of glutamic acid and tyrosine, E:Y: 4:1) and other cofactors such as Mg^++ and sodium vanadate (a protein tyrosine phosphatase inhibitor) in an appropriate buffer to maintain pH (7.2). ATP and a radioactive tracer (either P^32 -or P^33 -labeled ATP) is then add to initiate phosphorylation. After incubation, the radioactive phosphate associated with the acid-insoluble fraction of the assay mixture is then quantified as reflection of substrate phosphorylation.

Assay [7] relates to MDA-MB-435. Kind of assay: Inhibition of cancer cell growth as measured by cell number, MDA-MB-435. It counts as cell-based. To be noted: Homo sapiens, MDA-MB-435, 48 h, MDA-MB-435, 48 hours exposure. The method, then:
as §1

Assay [8] deals with SW620. The assay can be described thus: Inhibition of cancer cell growth as measured by cell number, SW620. It counts as cell-based. To be noted: Homo sapiens, SW-620, 48 h, SW620, 48 hours exposure. The method, then:
as §1

For assay [9], the system named is 3T3. Kind of assay: Inhibition of cancer cell growth as measured by cell number, 3T3. It counts as cell-based. The settings on record: Mus musculus, NIH3T3; 3T3, 48 hours exposure. The method, then:
as §1

Assay [10] relates to A431. Kind of assay: Inhibition of cancer cell growth as measured by cell number, A431. It counts as cell-based. To be noted: Homo sapiens, A-431, 48 h, A431, 48 hours exposure. The method, then:
as §1

Assay [11] has as its system SK-BR3. The assay can be described thus: Inhibition of cancer cell growth as measured by cell number, SK-BR3. It counts as cell-based. To be noted: Homo sapiens, SK-BR-3, 48 h, SK-BR3, 48 hours exposure. The method, then:
as §1

Chain of Epithelial Cell Kinase (ECK) (P29317 24-976): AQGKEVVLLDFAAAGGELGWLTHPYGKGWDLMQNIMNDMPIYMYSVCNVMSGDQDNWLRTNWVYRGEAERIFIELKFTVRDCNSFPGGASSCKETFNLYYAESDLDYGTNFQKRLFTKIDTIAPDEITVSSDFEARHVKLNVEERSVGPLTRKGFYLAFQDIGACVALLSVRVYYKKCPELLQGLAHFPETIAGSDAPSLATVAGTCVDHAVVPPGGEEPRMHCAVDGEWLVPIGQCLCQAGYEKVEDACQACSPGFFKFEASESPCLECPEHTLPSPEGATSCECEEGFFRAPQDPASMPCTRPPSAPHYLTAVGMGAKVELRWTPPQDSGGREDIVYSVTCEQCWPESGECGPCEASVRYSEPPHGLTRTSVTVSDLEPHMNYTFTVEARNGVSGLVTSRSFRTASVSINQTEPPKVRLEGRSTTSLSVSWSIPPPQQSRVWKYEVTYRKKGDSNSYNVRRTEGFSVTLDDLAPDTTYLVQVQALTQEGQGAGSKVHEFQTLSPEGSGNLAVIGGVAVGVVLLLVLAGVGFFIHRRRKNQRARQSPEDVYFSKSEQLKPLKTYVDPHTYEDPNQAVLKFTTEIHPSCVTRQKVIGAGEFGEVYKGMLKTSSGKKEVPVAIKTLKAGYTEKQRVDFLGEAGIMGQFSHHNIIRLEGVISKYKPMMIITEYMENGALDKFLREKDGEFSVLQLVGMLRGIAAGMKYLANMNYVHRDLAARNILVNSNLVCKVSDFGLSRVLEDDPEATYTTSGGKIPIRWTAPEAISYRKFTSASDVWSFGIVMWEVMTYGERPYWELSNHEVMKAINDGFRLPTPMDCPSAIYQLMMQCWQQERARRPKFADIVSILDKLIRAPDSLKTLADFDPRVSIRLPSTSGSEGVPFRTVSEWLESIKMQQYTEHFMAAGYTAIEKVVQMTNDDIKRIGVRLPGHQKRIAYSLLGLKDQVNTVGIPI
T1 sequence (P00533 669-1210): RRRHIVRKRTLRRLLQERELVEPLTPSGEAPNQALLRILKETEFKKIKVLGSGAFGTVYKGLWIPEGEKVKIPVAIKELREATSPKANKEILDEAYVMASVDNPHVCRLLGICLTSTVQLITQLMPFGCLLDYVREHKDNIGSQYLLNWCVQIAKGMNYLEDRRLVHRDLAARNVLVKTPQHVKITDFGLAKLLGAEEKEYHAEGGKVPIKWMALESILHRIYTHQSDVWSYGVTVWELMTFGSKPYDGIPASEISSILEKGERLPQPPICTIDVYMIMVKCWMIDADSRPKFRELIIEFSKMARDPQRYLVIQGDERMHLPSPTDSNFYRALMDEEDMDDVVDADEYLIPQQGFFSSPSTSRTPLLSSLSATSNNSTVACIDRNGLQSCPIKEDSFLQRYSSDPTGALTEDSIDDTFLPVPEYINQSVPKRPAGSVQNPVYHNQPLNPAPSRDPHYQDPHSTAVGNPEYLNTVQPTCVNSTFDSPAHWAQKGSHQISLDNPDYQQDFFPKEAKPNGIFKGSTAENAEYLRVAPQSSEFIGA
T2 sequence (P35968 834-1162 limits assumed): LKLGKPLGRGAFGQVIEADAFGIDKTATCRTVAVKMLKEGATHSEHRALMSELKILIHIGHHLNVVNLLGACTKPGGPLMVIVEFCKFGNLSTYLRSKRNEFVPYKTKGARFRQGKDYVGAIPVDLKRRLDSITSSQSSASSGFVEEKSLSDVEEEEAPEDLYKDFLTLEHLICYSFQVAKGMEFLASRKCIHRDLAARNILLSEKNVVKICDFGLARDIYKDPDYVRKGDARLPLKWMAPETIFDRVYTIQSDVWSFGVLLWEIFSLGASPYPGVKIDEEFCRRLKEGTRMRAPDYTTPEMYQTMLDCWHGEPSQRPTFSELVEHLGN

Take `CCOc1cc2ncc(C#N)c(Nc3ccc4c(c3)C(=O)NCC(=O)N4C)c2cc1OCC` [Example 127, 6,7-Diethoxy-4-(1-methyl-2,5-dioxo-2,3,4,5-tetrahydro-1H-benzo[e][1,4]diazepin-7-ylamino)-quinoline-3-carbonitrile]: the results for the IC50 in [1] and in assay [2] were over 1 µM and over 100 µM, respectively.

Consider `CCOc1cc2ncc(C#N)c(Nc3ccc4cn[nH]c4c3)c2cc1OCC` [Example 99, 6,7-Diethoxy-4-(1H-indazol-6-ylamino)-quinoline-3-carbonitrile], for which the “Relative Tumor Growth Day 7” value in [3] is listed as 3.80.

Consider `CCOc1cc2ncc(C#N)c(Nc3ccc4cc[nH]c4c3)c2cc1OCC` [Example 101, 6,7-Diethoxy-4-(1H-indol-6-ylamino)-quinoline-3-carbonitrile], for which the IC50 – broadly, the concentration at which inhibition is half-maximal – in assay [1] is over 1 µM.

In turn, `CCOc1cc2ncc(C#N)c(Nc3ccc4c(c3)CCC4)c2cc1OCC` [Example 108, 6,7-Diethoxy-4-(indan-5-ylamino)-quinoline-3-carbonitrile] registered an IC50 in [4] of 0.198 µg/mL (≈ 0.53 µM).

In the case of `CCOc1cc2ncc(C#N)c(Nc3ccc4c(c3)OCCO4)c2cc1OCC` [Example 105, 4-(2,3-Dihydro-benzo[1,4]dioxin-6-ylamino)-6,7-diethoxy-quinoline-3-carbonitrile], the IC50 was over 51.1 µM in assay [5]; 76.6 µM in assay [6]; 0.235 µg/mL (≈ 0.6 µM) in assay [7]; 0.411 µg/mL (≈ 1.05 µM) in assay [8]; 0.853 µg/mL (≈ 2.18 µM) in assay [9]; 0.27 µg/mL (≈ 0.69 µM) in assay [10]. The IC50 in assay [11] came to 0.281 µg/mL (≈ 0.718 µM); in assay [4], 0.375 µg/mL (≈ 0.958 µM).

For `CCOc1cc2ncc(C#N)c(Nc3ccc4c(c3)C(=O)OC4)c2cc1OCC` [Example 111, 6,7-Diethoxy-4-(3-oxo-1,3-dihydro-isobenzofuran-5-ylamino)-quinoline-3-carbonitrile], the IC50 is over 1 µM in [1] and over 100 µM in [2].

With `CCOc1cc2ncc(C#N)c(Nc3ccc4cn[nH]c4c3)c2cc1OC` [Example 115, 7-Ethoxy-4-(indazol-6-ylamino)-6-methoxy-quinoline-3-carbonitrile], the IC50 was over 0.5 µM in assay [1] and 25 µM in assay [2].

Turning to `CCOc1cc2ncc(C#N)c(Nc3ccc4c(c3)NCC4)c2cc1OCC` [Example 96, 4-(2,3-Dihydro-1H-indol-6-ylamino)-6,7-diethoxy-quinoline-3-carbonitrile], the IC50 in assay [5] is over 53.5 µM; in [6] it was 8.02 µM; in [1] it was over 10 µM. For the same compound, the inhibition at 0.5 µM in assay [1] (read-out: % Inh @ 0.5 μM) stood at 6%.

In the case of `CCOc1cc2ncc(C#N)c(Nc3ccc4c(c3)CCC4=O)c2cc1OCC` [Example 110, 6,7-Diethoxy-4-(1-oxo-indan-5-ylamino)-quinoline-3-carbonitrile], the IC50 in [5] is 0.155 µM and 0.036 µM; in [6] it was over 77.4 µM; in assay [7] it was 0.028 µg/mL (≈ 0.0723 µM); in assay [8], 0.0181 µg/mL (≈ 0.0467 µM); in assay [9], 0.0923 µg/mL (≈ 0.238 µM); in assay [10], 0.0244 µg/mL (≈ 0.063 µM). For the same compound, the IC50 in assay [11] was 0.0281 µg/mL (≈ 0.0725 µM); in [2], > 100 µM and 50 µM; in [4] it was 0.0311 µg/mL (≈ 0.0803 µM).

Compound `CCOc1cc2ncc(C#N)c(Nc3ccc4c(c3)OCO4)c2cc1OCC` [Example 98, 4-(Benzo[1,3]dioxol-5-ylamino)-6,7-diethoxy-quinoline-3-carbonitrile] came in with an IC50 in assay [6] of 2.65 µM.
